Experimental data reported in ChEMBL document CHEMBL1152576, “E-Combretastatin and E-resveratrol structural modifications: antimicrobial and cancer cell growth inhibitory beta-E-nitrostyrenes” (Bioorg Med Chem, 2009).
≈ marks a conversion by molar mass, not a printed value. Calls of active or inactive are those of the source. No cut-off for these calls is given here.

Columns and labels:
[1] = system: P388; assay: Cytotoxicity against mouse P388 cells after 48 hrs by sulforhodamine B assay; type: functional; settings: for EC50: P388, 48 h, read-out: ED50 (the source's name)
[2] = system: BXPC-3; assay: Cytotoxicity against human BxPC3 cells after 48 hrs by sulforhodamine B assay; type: functional
[3] = system: MCF7; assay: Cytotoxicity against human MCF7 cells after 48 hrs by sulforhodamine B assay; type: functional
[4] = system: SF-295; assay: Cytotoxicity against human SF295 cells after 48 hrs by sulforhodamine B assay; type: functional
[5] = system: SF-268; assay: Cytotoxicity against human SF268 cells after 48 hrs by sulforhodamine B assay; type: functional
[6] = system: NCI-H460; assay: Cytotoxicity against human NCI-H460 cells after 48 hrs by sulforhodamine B assay; type: functional
[7] = system: KM-20L2; assay: Cytotoxicity against human KM20L2 cells after 48 hrs by sulforhodamine B assay; type: functional
[8] = system: DU-145; assay: Cytotoxicity against human DU145 cells after 48 hrs by sulforhodamine B assay; type: functional
[9] = system: SK-MEL-5; assay: Cytotoxicity against human SK-MEL-5 cells after 48 hrs by sulforhodamine B assay; type: functional
[10] = system: OVCAR-3; assay: Cytotoxicity against human OVCAR-3 cells after 48 hrs by sulforhodamine B assay; type: functional
[11] = system: A498; assay: Cytotoxicity against human A498 cells after 48 hrs by sulforhodamine B assay; type: functional
[12] = Inhibition of tubulin polymerization
[13] = system: Candida albicans; assay: Antimicrobial activity against Candida albicans ATCC 90028 assessed clear zone in inhibition per disk by CLSI disk diffusion susceptibility assay; type: functional
[14] = system: Cryptococcus neoformans; assay: Antimicrobial activity against Cryptococcus neoformans ATCC 90112 assessed clear zone in inhibition per disk by CLSI disk diffusion susceptibility assay; type: functional
[15] = system: Staphylococcus aureus; assay: Antimicrobial activity against Staphylococcus aureus ATCC 29213 assessed clear zone in inhibition per disk by CLSI disk diffusion susceptibility assay; type: functional
[16] = system: Streptococcus pneumoniae; assay: Antimicrobial activity against Streptococcus pneumoniae ATCC 6303 assessed clear zone in inhibition per disk by CLSI disk diffusion susceptibility assay; type: functional
[17] = system: Enterococcus faecalis; assay: Antimicrobial activity against Enterococcus faecalis ATCC 29212 assessed clear zone in inhibition per disk by CLSI disk diffusion susceptibility assay; type: functional
[18] = system: Micrococcus luteus; assay: Antimicrobial activity against Micrococcus luteus Presque Isle 456 assessed clear zone in inhibition per disk by CLSI disk diffusion susceptibility assay; type: functional
[19] = system: Stenotrophomonas maltophilia; assay: Antimicrobial activity against Stenotrophomonas maltophilia ATCC 13637 assessed clear zone in inhibition per disk by CLSI disk diffusion susceptibility assay; type: functional
[20] = system: Escherichia coli; assay: Antimicrobial activity against Escherichia coli ATCC 25922 assessed clear zone in inhibition per disk by CLSI disk diffusion susceptibility assay; type: functional
[21] = system: Enterobacter cloacae; assay: Antimicrobial activity against Enterobacter cloacae ATCC 13047 assessed clear zone in inhibition per disk by CLSI disk diffusion susceptibility assay; type: functional
[22] = system: Neisseria gonorrhoeae; assay: Antimicrobial activity against Neisseria gonorrhoeae ATCC 49226 assessed clear zone of inhibition measured per disk by CLSI disk diffusion susceptibility assay; type: functional
[23] = system: Candida albicans; assay: Antifungal activity against Candida albicans ATCC 90028 after 48 hrs by broth microdilution susceptibility assay; type: functional; settings: ATCC 90028, 48 h
[24] = system: Cryptococcus neoformans; assay: Antifungal activity against Cryptococcus neoformans ATCC 90112 after 72 hrs by broth microdilution susceptibility assay; type: functional; settings: ATCC 90112, 72 h
[25] = system: Staphylococcus aureus; assay: Antimicrobial activity against Staphylococcus aureus ATCC 29213 by broth microdilution susceptibility assay; type: functional
[26] = system: Streptococcus pneumoniae; assay: Antimicrobial activity against Streptococcus pneumoniae ATCC 6303 by broth microdilution susceptibility assay; type: functional
[27] = system: Enterococcus faecalis; assay: Antimicrobial activity against Enterococcus faecalis ATCC 29212 by broth microdilution susceptibility assay; type: functional
[28] = system: Micrococcus luteus; assay: Antimicrobial activity against Micrococcus luteus Presque Isle 456 by broth microdilution susceptibility assay; type: functional
[29] = system: Stenotrophomonas maltophilia; assay: Antimicrobial activity against Stenotrophomonas maltophilia ATCC 13637 by broth microdilution susceptibility assay; type: functional
[30] = system: Escherichia coli; assay: Antimicrobial activity against Escherichia coli ATCC 25922 by broth microdilution susceptibility assay; type: functional
[31] = system: Enterobacter cloacae; assay: Antimicrobial activity against Enterobacter cloacae ATCC 13047 by broth microdilution susceptibility assay; type: functional
[32] = system: Neisseria gonorrhoeae; assay: Antimicrobial activity against Neisseria gonorrhoeae ATCC 49226 by broth microdilution susceptibility assay; type: functional
[33] = system: Candida albicans; assay: Antifungal activity against Candida albicans ATCC 90028 after 24 hrs by broth microdilution susceptibility assay; type: functional; settings: ATCC 90028, 24 h
[34] = system: Cryptococcus neoformans; assay: Antifungal activity against Cryptococcus neoformans ATCC 90112 after 48 hrs by broth microdilution susceptibility assay; type: functional; settings: ATCC 90112, 48 h
[35] = system: Neisseria gonorrhoeae; assay: Antimicrobial activity against Neisseria gonorrhoeae ATCC 49226 after 24 hrs by broth microdilution susceptibility assay; type: functional; settings: ATCC 49226, 24 h

Row | SMILES | EC50 [1] [µg/mL] | GI50 ([6]; NCI-H460, 48 h) [µg/mL] | GI50 ([7]; KM-20L2, 48 h) [µg/mL] | GI50 [9] | GI50 [10] | GI50 [11] | IC50 [12] [µM] | MIC [13] [µg] | MIC [14] [µg] | MIC [15] [µg] | MIC [16] [µg] | MIC [17] [µg] | MIC [18] [µg] | MIC [19] [µg] | MIC [20] [µg] | MIC [21] [µg] | MIC [22] [µg] | MIC [23] [µg/mL] | MIC [24] [µg/mL] | GI50 [5] | further results
1 | COc1ccc(/C=C/[N+](=O)[O-])cc1OC | 0.34 (≈ 1.63 µM) | 0.46 (≈ 2.2 µM) | 1.3 (≈ 6.21 µM) | inactive | inactive | inactive | 6 | 6.25 | 3.12 | 25 | 12.5 | 25 | 50 | >100 | 25 | >100 | 0.78 | 16 (≈ 76.5 µM) | 16 (≈ 76.5 µM) | – | GI50 ([2]; BXPC-3, 48 h): 1.5 µg/mL (≈ 7.17 µM); GI50 ([3]; MCF7, 48 h): 0.53 µg/mL (≈ 2.53 µM); GI50 [4]: inactive; GI50 ([5]; SF-268, 48 h): 0.71 µg/mL (≈ 3.39 µM); GI50 ([8]; DU-145, 48 h): 1.4 µg/mL (≈ 6.69 µM); MIC [25]: > 64 µg/mL; MIC [26]: > 64 µg/mL; MIC [27]: > 64 µg/mL; MIC [28]: > 64 µg/mL; MIC [29]: > 64 µg/mL; MIC [30]: > 64 µg/mL; MIC [31]: > 64 µg/mL; MIC [32]: 4 µg/mL (≈ 19.1 µM); MFC [33]: 16 µg/mL (≈ 76.5 µM); MFC [34]: 16 µg/mL (≈ 76.5 µM); MBC [35]: 4 µg/mL (≈ 19.1 µM)
2 | CC(=O)Nc1ccc(/C=C/[N+](=O)[O-])cc1 | 6.2 (≈ 30.1 µM) | 0.7 (≈ 3.39 µM) | 1.1 (≈ 5.33 µM) | – | – | – | 11 | 6.25 | <6.25 | <6.25 | <6.25 | >100 | >100 | >100 | >100 | >100 | <6.25 | – | – | inactive | GI50 [2]: inactive; GI50 [3]: inactive; GI50 ([4]; SF-295, 48 h): 1.4 µg/mL (≈ 6.79 µM); GI50 [8]: inactive; GI50 ([9]; SK-MEL-5, 48 h): 0.34 µg/mL (≈ 1.65 µM); GI50 ([10]; OVCAR-3, 48 h): 0.65 µg/mL (≈ 3.15 µM); GI50 ([11]; A498, 48 h): 0.96 µg/mL (≈ 4.66 µM)
3 | COc1cc(/C=C/[N+](=O)[O-])cc2c1OCO2 | – | – | – | inactive | inactive | inactive | 5.6 | 1.56 | 3.12 | >100 | >100 | >100 | >100 | >100 | >100 | >100 | 1.56 | > 64 | 64 (≈ 287 µM) | inactive | ED50 [1]: inactive; GI50 [2]: inactive; GI50 [3]: inactive; GI50 [4]: inactive; GI50 [6]: inactive; GI50 [7]: inactive; GI50 [8]: inactive; MIC [25]: > 64 µg/mL; MIC [26]: > 64 µg/mL; MIC [27]: > 64 µg/mL; MIC [28]: > 64 µg/mL; MIC [29]: > 64 µg/mL; MIC [30]: > 64 µg/mL; MIC [31]: > 64 µg/mL; MIC [32]: > 64 µg/mL; MFC [34]: > 64 µg/mL
4 | COc1cc(/C=C/[N+](=O)[O-])cc(OC)c1OC | 1.1 (≈ 4.6 µM) | 1.1 (≈ 4.6 µM) | 1.3 (≈ 5.43 µM) | inactive | – | inactive | 4.5 | 3.12 | 3.12 | 12.5 | 3.12 | 50 | 25 | >100 | >100 | >100 | 0.78 | 32 (≈ 134 µM) | 16 (≈ 66.9 µM) | inactive | GI50 ([2]; BXPC-3, 48 h): 1.4 µg/mL (≈ 5.85 µM); GI50 [3]: inactive; GI50 ([4]; SF-295, 48 h): 1.3 µg/mL (≈ 5.43 µM); GI50 ([8]; DU-145, 48 h): 1 µg/mL (≈ 4.18 µM); GI50 ([10]; OVCAR-3, 48 h): 0.42 µg/mL (≈ 1.76 µM); MIC [25]: > 64 µg/mL; MIC [26]: > 64 µg/mL; MIC [27]: > 64 µg/mL; MIC [28]: > 64 µg/mL; MIC [29]: > 64 µg/mL; MIC [30]: > 64 µg/mL; MIC [31]: > 64 µg/mL; MIC [32]: 4 µg/mL (≈ 16.7 µM); MFC [33]: 32 µg/mL (≈ 134 µM); MFC [34]: 16 µg/mL (≈ 66.9 µM); MBC [35]: 8 µg/mL (≈ 33.4 µM)
5 | COc1ccc(/C=C/[N+](=O)[O-])cc1 | 1.7 (≈ 9.49 µM) | 1.7 (≈ 9.49 µM) | 1.5 (≈ 8.37 µM) | inactive | inactive | inactive | 5.7 | 3.12 | 1.56 | 12.5 | 6.25 | 50 | 50 | 12.5 | 6.25 | 12.5 | 0.78 | 8 (≈ 44.6 µM) | 16 (≈ 89.3 µM) | inactive | GI50 ([2]; BXPC-3, 48 h): 1.8 µg/mL (≈ 10 µM); GI50 ([3]; MCF7, 48 h): 0.54 µg/mL (≈ 3.01 µM); GI50 ([4]; SF-295, 48 h): 1.6 µg/mL (≈ 8.93 µM); GI50 ([8]; DU-145, 48 h): 1.7 µg/mL (≈ 9.49 µM); MIC [25]: > 64 µg/mL; MIC [26]: > 64 µg/mL; MIC [27]: > 64 µg/mL; MIC [28]: > 64 µg/mL; MIC [29]: > 64 µg/mL; MIC [30]: > 64 µg/mL; MIC [31]: > 64 µg/mL; MIC [32]: 2 µg/mL (≈ 11.2 µM); MFC [33]: 16 µg/mL (≈ 89.3 µM); MFC [34]: 16 µg/mL (≈ 89.3 µM); MBC [35]: 2 µg/mL (≈ 11.2 µM)
6 | COc1cc(/C=C/[N+](=O)[O-])c(OC)c(OC)c1OC | 1.3 (≈ 4.83 µM) | – | – | inactive | inactive | inactive | 5.4 | 0.78 | 0.78 | <0.78 | 6.25 | 3.12 | 1.56 | 25 | 12.5 | >100 | <0.78 | – | – | inactive | GI50 [2]: inactive; GI50 [3]: inactive; GI50 [4]: inactive; GI50 [6]: inactive; GI50 [7]: inactive; GI50 [8]: inactive
